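Interpolation was linear, between the two tested concentrations surrounding the appropriate level; five concentrations were tested over 48 hours in 96-well plates. The concentration for 50% growth inhibition is given as GI50.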 Active and inactive are the calls of the source. No stated cut-off is given here; in the data, active = GI50 up to about 1.1 µM and inactive = higher.
Experiments:
Assay in all cases: inhibition of tumour cell growth, NCI panel, 48 h
786-0 = system: 786-0
ACHN = system: ACHN
BT-549 = system: BT-549
CAKI-1 = system: CAKI-1
HCT-116 = system: HCT-116
HCT-15 = system: HCT-15
IGROV-1 = system: IGROV-1
MDA-MB-231 = system: MDA-MB-231
MOLT-4 = system: MOLT-4
NCI/ADR-RES = system: NCI/ADR-RES
SF-268 = system: SF-268
SK-MEL-5 = system: SK-MEL-5
SNB-75 = system: SNB-75
SR = system: SR
SW-620 = system: SW-620
T47D = system: T47D
UACC-257 = system: UACC-257
TK-10 = system: TK-10
UACC-62 = system: UACC-62
A498 = system: A498

| SMILES | GI50 (786-0) | GI50 (ACHN) | GI50 (BT-549) | GI50 (CAKI-1) | GI50 (HCT-116) | GI50 (HCT-15) [µM] | GI50 (IGROV-1) | GI50 (MDA-MB-231) | GI50 (MOLT-4) | GI50 (NCI/ADR-RES) | GI50 (SF-268) | GI50 (SK-MEL-5) | GI50 (SNB-75) | GI50 (SR) | GI50 (SW-620) | GI50 (T47D) | GI50 (UACC-257) | GI50 (TK-10) | GI50 (UACC-62) | GI50 (A498) |
| --- | --- | --- | --- | --- | --- | --- | --- | --- | --- | --- | --- | --- | --- | --- | --- | --- | --- | --- | --- | --- |
| CC(C)=NNc1cnnc2ccc([N+](=O)[O-])cc12 | 51.3 µM (inactive) | 23.9 µM (inactive) | > 100 µM (inactive) | 52 µM (inactive) | 59.6 µM (inactive) | 57.5 | 21.4 µM (inactive) | 59.7 µM (inactive) | 37.2 µM (inactive) | > 100 µM (inactive) | > 100 µM (inactive) | 55.3 µM (inactive) | 58.9 µM (inactive) | 30.3 µM (inactive) | > 100 µM (inactive) | 65.2 µM (inactive) | > 100 µM (inactive) | – | – | – |
| COc1cccc(C2CC(C)(O)Oc3cc4c(cc32)OCO4)c1 (stereo not drawn) | 33.7 µM (inactive) | 25.9 µM (inactive) | 16.1 µM (inactive) | 29 µM (inactive) | 9.44 µM (inactive) | 7.01 | 24 µM (inactive) | 24.1 µM (inactive) | 8.97 µM (inactive) | 16.3 µM (inactive) | 30.6 µM (inactive) | 14.2 µM (inactive) | 18.6 µM (inactive) | 4.58 µM (inactive) | 7.31 µM (inactive) | 27.8 µM (inactive) | 37.6 µM (inactive) | 21.1 µM (inactive) | 14.4 µM (inactive) | – |
| CCn1c2ccccc2n2c(=O)c3c(c(C#N)c12)CCCC3 | > 100 µM (inactive) | > 100 µM (inactive) | > 100 µM (inactive) | > 100 µM (inactive) | > 100 µM (inactive) | > 100 | > 100 µM (inactive) | > 100 µM (inactive) | > 100 µM (inactive) | > 100 µM (inactive) | > 100 µM (inactive) | > 100 µM (inactive) | – | – | > 100 µM (inactive) | > 100 µM (inactive) | > 100 µM (inactive) | > 100 µM (inactive) | > 100 µM (inactive) | > 100 µM (inactive) |
| O=[N+]([O-])c1ccc(/C=C(/c2ccc([N+](=O)[O-])o2)S(=O)(=O)c2ccccc2)o1 | 3.17 µM (inactive) | 2.84 µM (inactive) | 19.9 µM (inactive) | 18.5 µM (inactive) | 1.71 µM (inactive) | 11.6 | 16.6 µM (inactive) | 3.19 µM (inactive) | – | 18 µM (inactive) | 15.6 µM (inactive) | 11.9 µM (inactive) | 19 µM (inactive) | 1.02 µM (active) | 2.26 µM (inactive) | 11.4 µM (inactive) | 1.84 µM (inactive) | 4.1 µM (inactive) | 6.17 µM (inactive) | – |
| CC(=O)C(=C(c1ccccc1)c1ccccc1)c1ccccc1 | > 100 µM (inactive) | > 100 µM (inactive) | > 100 µM (inactive) | – | > 100 µM (inactive) | 86.7 | – | > 100 µM (inactive) | 87.5 µM (inactive) | > 100 µM (inactive) | > 100 µM (inactive) | > 100 µM (inactive) | 87.7 µM (inactive) | 31.8 µM (inactive) | > 100 µM (inactive) | > 100 µM (inactive) | > 100 µM (inactive) | > 100 µM (inactive) | > 100 µM (inactive) | – |
| O=C(O)COc1c(Cl)cc(Cl)c(C(c2c(Cl)cc(Cl)c(OCC(=O)O)c2Cl)C(Cl)(Cl)Cl)c1Cl | 37.2 µM (inactive) | 33.7 µM (inactive) | 23.1 µM (inactive) | 33.7 µM (inactive) | 28.2 µM (inactive) | 26.4 | 32.8 µM (inactive) | 24.9 µM (inactive) | 35.3 µM (inactive) | 34 µM (inactive) | 39.6 µM (inactive) | 18.5 µM (inactive) | 29.6 µM (inactive) | – | 29.8 µM (inactive) | 30.3 µM (inactive) | 26.2 µM (inactive) | 31.9 µM (inactive) | 18.9 µM (inactive) | 35.7 µM (inactive) |
| CCOC(=O)C(=O)/C(=C/N1C(=O)CC(=O)NC1=S)C(=O)OCC | > 100 µM (inactive) | > 100 µM (inactive) | > 100 µM (inactive) | > 100 µM (inactive) | > 100 µM (inactive) | > 100 | > 100 µM (inactive) | > 100 µM (inactive) | > 100 µM (inactive) | > 100 µM (inactive) | > 100 µM (inactive) | > 100 µM (inactive) | 10.3 µM (inactive) | > 100 µM (inactive) | > 100 µM (inactive) | > 100 µM (inactive) | > 100 µM (inactive) | – | > 100 µM (inactive) | 83.6 µM (inactive) |
| CC(=O)O[C@H]1CC[C@@]2(C)C(=CC[C@@H]3[C@@H]2CC[C@]2(C)C(=N/O)/C(=C/c4ccc([N+](=O)[O-])cc4)C[C@@H]32)C1 | 4.89 µM (inactive) | 6.22 µM (inactive) | 2.25 µM (inactive) | 1.39 µM (inactive) | 3.97 µM (inactive) | 4.6 | 12.8 µM (inactive) | 8.89 µM (inactive) | 3.58 µM (inactive) | 6.84 µM (inactive) | 3.66 µM (inactive) | 1.69 µM (inactive) | 10 µM (inactive) | – | 6.24 µM (inactive) | 0.338 µM (active) | 0.0304 µM (active) | 8.43 µM (inactive) | 1.76 µM (inactive) | 4.71 µM (inactive) |
| CC1(C)CC[C@]2(C(=O)O)CC[C@]3(C)C(=CC[C@@H]4[C@@]5(C)CC[C@H](OC6OC(CO)C(O)C(O)C6OC6OC(CO)C(O)C(O)C6O)C(C)(C)[C@@H]5CC[C@]43C)[C@@H]2C1 (stereo partly drawn) | 16.6 µM (inactive) | 18.5 µM (inactive) | 19.5 µM (inactive) | 19.5 µM (inactive) | 17.1 µM (inactive) | 18 | 18.9 µM (inactive) | 26.4 µM (inactive) | 22.5 µM (inactive) | 21.2 µM (inactive) | 17.2 µM (inactive) | 19 µM (inactive) | 21.6 µM (inactive) | 22.5 µM (inactive) | 22.5 µM (inactive) | 21.3 µM (inactive) | 20.1 µM (inactive) | – | 19.3 µM (inactive) | 18.5 µM (inactive) |
| O=C1CNc2cc(N3CCN(c4cccc(C(F)(F)F)c4)CC3)ccc2N1 | > 100 µM (inactive) | 50.6 µM (inactive) | 42.8 µM (inactive) | > 100 µM (inactive) | 35.7 µM (inactive) | 38.9 | 30.8 µM (inactive) | > 100 µM (inactive) | 28.7 µM (inactive) | 34.6 µM (inactive) | > 100 µM (inactive) | 18.9 µM (inactive) | 84.7 µM (inactive) | 46.3 µM (inactive) | 51.2 µM (inactive) | 32.3 µM (inactive) | 37 µM (inactive) | 69.2 µM (inactive) | 35.1 µM (inactive) | – |
| CNc1nc2c(C)ccc3nc(N(C)C)nc-3c2n1C | > 10 µM (inactive) | > 10 µM (inactive) | > 10 µM (inactive) | > 10 µM (inactive) | > 10 µM (inactive) | > 10 | > 10 µM (inactive) | > 10 µM (inactive) | > 10 µM (inactive) | > 10 µM (inactive) | > 10 µM (inactive) | > 10 µM (inactive) | > 10 µM (inactive) | – | > 10 µM (inactive) | > 10 µM (inactive) | > 10 µM (inactive) | > 10 µM (inactive) | – | > 10 µM (inactive) |
| O=C1O[C@H]2[C@@H]3OC(=O)c4cc(O)c(O)c(O)c4-c4c(cc(O)c(O)c4O)C(=O)OC[C@H]2O[C@@H](OC(=O)c2cc(O)c(O)c(O)c2)[C@@H]3OC(=O)c2cc(O)c(O)c3c2[C@@H]2C1=CC(=O)C(O)(O)C2(O)O3 (stereo partly drawn) | 18.1 µM (inactive) | 31.5 µM (inactive) | 72.8 µM (inactive) | 14.1 µM (inactive) | 16.9 µM (inactive) | 21.9 | 52.8 µM (inactive) | 19.8 µM (inactive) | 25.9 µM (inactive) | 39.3 µM (inactive) | 74.1 µM (inactive) | 25.5 µM (inactive) | 24.6 µM (inactive) | 29 µM (inactive) | 18.5 µM (inactive) | 26.8 µM (inactive) | 51.6 µM (inactive) | – | 30.1 µM (inactive) | 82.8 µM (inactive) |
| COc1cc(-c2cc(=O)c3c(O)c(OC)c(OC)c(OC)c3o2)cc(OC)c1OC [GARDENIN] | 3.72 µM (inactive) | 3.33 µM (inactive) | 6.76 µM (inactive) | – | 4.5 µM (inactive) | > 100 | 68.4 µM (inactive) | 2.91 µM (inactive) | > 100 µM (inactive) | 7.29 µM (inactive) | 8.71 µM (inactive) | 11 µM (inactive) | 2.23 µM (inactive) | > 100 µM (inactive) | – | 10.2 µM (inactive) | > 100 µM (inactive) | 6.92 µM (inactive) | 32.4 µM (inactive) | 2.92 µM (inactive) |
| C[C@H](CCC(=O)O)[C@H]1CC[C@H]2[C@@H]3[C@@H](O)C[C@@H]4C[C@H](O)CC[C@]4(C)[C@H]3CC[C@]12C [URSODIOL] | > 100 µM (inactive) | > 100 µM (inactive) | > 100 µM (inactive) | > 100 µM (inactive) | > 100 µM (inactive) | > 100 | > 100 µM (inactive) | > 100 µM (inactive) | 47.4 µM (inactive) | > 100 µM (inactive) | > 100 µM (inactive) | – | 99.1 µM (inactive) | 25.1 µM (inactive) | > 100 µM (inactive) | > 100 µM (inactive) | > 100 µM (inactive) | > 100 µM (inactive) | > 100 µM (inactive) | > 100 µM (inactive) |

From ChEMBL document CHEMBL1201862, “PubChem BioAssay data set” (2004)
